These results are taken from ChEMBL document CHEMBL1141031, “Stereo-controlled synthesis of novel photoreactive gamma-secretase inhibitors” (Bioorg Med Chem Lett, 2009).

For one assay, the target named is Gamma-secretase. Nature of the assay: Inhibition of human gamma secretase assessed as effect on C100Flag substrate cleavage. Type of assay: protein-complex assay.
Assay [1] has as its target Presenilin-1 (Homo sapiens) (UniProt P49768). Nature of the assay: Binding affinity to presenilin-1 in UV irradiated human HeLa cells assessed as enzyme photolabeling at 10 uM by SDS-PAGE based photocross linking study. The format is cell-based.
For assay [2] the target is unchanged. Nature of the assay: Binding affinity to presenilin-1 in UV irradiated human HeLa cells assessed as enzyme photolabeling at 10 uM in presence of 2 uM L-685,458 by SDS-PAGE based photocross linking study. The format is cell-based.

The source made the active and inactive calls. The calls are words filed in the database; no cut-off is given here.

The IC50 is the concentration at which inhibition is half-maximal.

On to `COC(=O)[C@H](Cc1ccccc1)NC(=O)[C@H](CC(C)C)NC(=O)[C@H](Cc1ccccc1)C[C@@H](O)[C@H](Cc1ccc(C(=O)c2ccccc2)cc1)NC(=O)OC(C)(C)C`, for which the 50% inhibitory concentration (IC50) at Gamma-secretase is 0.7 nM.

Consider `CC(C)C[C@H](NC(=O)[C@H](Cc1ccccc1)C[C@@H](O)[C@H](Cc1ccc(C(=O)c2ccccc2)cc1)NC(=O)OC(C)(C)C)C(=O)N[C@@H](Cc1ccccc1)C(=O)NCCCCCNC(=O)CCCCC1SC[C@H]2NC(=O)N[C@@H]12` (some centres undefined), for which the outcome in assay [1] was Active. At Gamma-secretase, the concentration for half-maximal inhibition (IC50) was 0.6 nM. Further, the outcome in assay [2] was inactive.
